Source: patent US6544985B2, “Dihydro-benzo [b][1,4]diazepin-2-one derivatives” (Hoffman-La Roche Inc., priority 2001, dated 2003)

| SMILES | melting point |
| --- | --- |
| CN(C)c1cc2c(cc1Cl)NC(=O)CC(c1cccc(C#N)c1)=N2 [Example 1, 3-(7-Chloro-8-dimethylamino-4-oxo-4,5-dihydro-3H-benzo[b][1,4]diazepin-2-yl)-benzonitrile] | > 250 °C |
| CN(C)c1cc2c(cc1Cl)NC(=O)CC(c1cccc(-n3ccnn3)c1)=N2 [Example 2, 8-Chloro-7-dimethylamino-4-(3-[1,2,3]triazol-1-yl-phenyl)-1,3-dihydro-benzo[b][1,4]diazepin-2-one] | 222 to 225 °C |
| CN(C)c1cc2c(cc1C#Cc1ccccc1)NC(=O)CC(c1cccc(C#N)c1)=N2 [Example 4, 3-(8-Dimethylamino-4-oxo-7-phenylethynyl-4,5-dihydro-3H-benzo[b][1,4]diazepin-2-yl)-benzonitrile] | 215 to 216 °C |
| CN(C)c1cc2c(cc1C#Cc1ccccc1)NC(=O)CC(c1cccc(-n3ccnn3)c1)=N2 [Example 5, 7-Dimethylamino-8-phenylethynyl-4-(3-[1,2,3]triazol-1-yl-phenyl)-1,3-dihydro-benzo[b][1,4]diazepin-2-one] | 185 to 186 °C |
| Cc1cc(-c2cccc(C3=Nc4cc(N(C)C)c(Cl)cc4NC(=O)C3)c2)on1 [Example 6, 8-Chloro-7-dimethylamino-4-[3-(3-methyl-isoxazol-5-yl)-phenyl]-1,3-dihydro-benzo[b][1,4]diazepin-2-one] | 212 to 215 °C |
| Cc1cc(-c2cc(C3=Nc4cc(N(C)C)c(Cl)cc4NC(=O)C3)ccn2)on1 [Example 10, 8-Chloro-7-dimethylamino-4-[2-(3-methyl-isoxazol-5-yl)-pyridin-4-yl]-1,3-dihydro-benzo[b][1,4]diazepin-2-one] | > 250 °C |
| COCCN(C)c1cc2c(cc1Cl)NC(=O)CC(c1ccnc(-c3cc(C)no3)c1)=N2 [Example 12, 8-Chloro-7-[(2-methoxy-ethyl)-methyl-amino]-4-[2-(3-methyl-isoxazol-5-yl)-pyridin-4-yl]-1,3-dihydro-benzo[b][1,4]diazepin-2-one] | 213 °C |
| COCCN(C)c1cc2c(cc1Cl)NC(=O)CC(c1cccc(-n3nncc3CO)c1)=N2 [Example 13, 8-Chloro-4-[3-(5-hydroxymethyl-[1,2,3]triazol-1-yl)-phenyl]-7-[(2-methoxy-ethyl)-methyl-amino]-1,3-dihydro-benzo[b][1,4]diazepin-2-one] | 185 °C |
| COCCN(C)c1cc2c(cc1Cl)NC(=O)CC(c1cccc(-n3ccnn3)c1)=N2 [Example 14, 8-Chloro-7-[(2-methoxy-ethyl)-methyl-amino]-4-(3-[1,2,3]triazol-1-yl-phenyl)-1,3-dihydro-benzo[b][1,4]diazepin-2-one] | 156 °C |
| CN(C)c1cc2c(cc1Cl)NC(=O)CC(c1ccnc(C#N)c1)=N2 [Example 15, 4-(7-Chloro-8-dimethylamino-4-oxo-4,5-dihydro-3H-benzo[b][1,4]diazepin-2-yl)-pyridine-2-carbonitrile] | 216 °C |
| CN(C)c1cc2c(cc1C(F)(F)F)NC(=O)CC(c1cccc(-n3nncc3CO)c1)=N2 [Example 17, 7-Dimethylamino-4-[3-(5-hydroxymethyl-[1,2,3]triazol-1-yl)-phenyl]-8-trifluoromethyl-1,3-dihydro-benzo[b][1,4]diazepin-2-one] | 210 °C |
| Cc1cc(-c2cccc(C3=Nc4cc(N(C)C)c(C(F)(F)F)cc4NC(=O)C3)c2)on1 [Example 18, 7-Dimethylamino-4-[3-(3-methyl-isoxazol-5-yl)-phenyl]-8-trifluoromethyl-1,3-dihydro-benzo[b][1,4]diazepin-2-one] | 223 °C |
| CN(C)Cc1cnnn1-c1cccc(C2=Nc3cc(N(C)C)c(Cl)cc3NC(=O)C2)c1 [Example 20, 8-Chloro-7-dimethylamino-4-[3-(5-dimethylaminomethyl-[1,2,3]triazol-1-yl)-phenyl]-1,3-dihydro-benzo[b][1,4]diazepin-2-one] | 145 to 160 °C |
| COCc1cc(-c2cccc(C3=Nc4cc(N(C)C)c(Cl)cc4NC(=O)C3)c2)on1 [Example 21, 8-Chloro-7-dimethylamino-4-[3-(3-methoxymethyl-isoxazol-5-yl)-phenyl]-1,3-dihydro-benzo[b][1,4]diazepin-2-one] | 191 °C |
| CN(C)c1cc2c(cc1C(F)(F)F)NC(=O)CC(c1ccnc(C#N)c1)=N2 [Example 22, 4-(8-Dimethylamino-4-oxo-7-trifluoromethyl-4,5-dihydro-3H-benzo[b][1,4]diazepin-2-yl)-pyridine-2-carbonitrile] | 248 °C |
| O=C1CC(c2cccc(-n3ccnc3)c2)=Nc2cc(OCC(F)(F)F)c(-c3ccccc3F)cc2N1 [Example 23, 8-(2-Fluoro-phenyl)-4-(3-imidazol-1-yl-phenyl)-7-(2,2,2-trifluoro-ethoxy)-1,3-dihydro-benzo[b][1,4]diazepin-2-one] | 208 to 210 °C |
| O=C1CC(c2cccc(-n3nncc3CO)c2)=Nc2cc(OCC(F)(F)F)c(-c3ccccc3F)cc2N1 [Example 26, 8-(2-Fluoro-phenyl)-4-[3-(5-hydroxymethyl-[1,2,3]triazol-1-yl)-phenyl]-7-(2,2,2-trifluoro-ethoxy)-1,3-dihydro-benzo[b][1,4]diazepin-2-one] | 232 to 234 °C |
| CCN(C)c1cc2c(cc1Cl)NC(=O)CC(c1cccc(-n3nncc3CO)c1)=N2 [Example 28, 8-Chloro-7-(ethyl-methyl-amino)-4-[3-(5-hydroxymethyl-[1,2,3]triazol-1-yl)-phenyl]-1,3-dihydro-benzo[b][1,4]diazepin-2-one] | 206 °C (dec.) |
| CN(C)c1cc2c(cc1Cl)NC(=O)CC(c1cccc(-c3cc(CO)no3)c1)=N2 [Example 31, 8-Chloro-7-dimethylamino-4-[3-(3-hydroxymethyl-isoxazol-5-yl)-phenyl]-1,3-dihydro-benzo[b][1,4]diazepin-2-one] | 132 °C |
| CN(C)c1cc2c(cc1C(F)(F)F)NC(=O)CC(c1cccc(-c3ccnn3C)c1)=N2 [Example 33, 7-Dimethylamino-4-[3-(2-methyl-2H-pyrazol-3-yl)-phenyl]-8-trifluoromethyl-1,3-dihydro-benzo[b][1,4]diazepin-2-one] | 225 °C |
| CN(c1cc2c(cc1Cl)NC(=O)CC(c1ccnc(C#N)c1)=N2)C1CC1 [Example 34, 4-[7-Chloro-8-(cyclopropyl-methyl-amino)-4-oxo-4,5-dihydro-3H-benzo[b][1,4]diazepin-2-yl]-pyridine-2-carbonitrile] | 199 to 201 °C |
| Cc1noc(-c2cccc(C3=Nc4cc(N(C)C)c(Cl)cc4NC(=O)C3)c2)c1CO [Example 35, 8-Chloro-7-dimethylamino-4-[3-(4-hydroxymethyl-3-methyl-isoxazol-5-yl)-phenyl]-1,3-dihydro-benzo[b][1,4]diazepin-2-one] | 232 to 233 °C |
| Cc1cc(-c2cccc(C3=Nc4cc(N(C)C5CC5)c(Cl)cc4NC(=O)C3)c2)on1 [Example 36, 8-Chloro-7-(cyclopropyl-methyl-amino)-4-[3-(3-methyl-isoxazol-5-yl)-phenyl]-1,3-dihydro-benzo[b][1,4]diazepin-2-one] | 195 to 197 °C |
| CN(C)Cc1cnnn1-c1cccc(C2=Nc3cc(N(C)C)c(C(F)(F)F)cc3NC(=O)C2)c1 [Example 38, 7-Dimethylamino-4-[3-(5-dimethylaminomethyl-[1,2,3]triazol-1-yl)-phenyl]-8-trifluoromethyl-1,3-dihydro-benzo[b][1,4]diazepin-2-one] | 200 °C |
